Several values for one entry are separate records, joined by “and”; a condition that tells them apart may be missing. Equal entries are not always repeated. Toxic doses and inconclusive results are not listed. Cut-off read from the data, not from the text of the source: active = T/C of 150% or more; inactive = T/C below 125%.
Tested on: L1210 leukemia ip in BDF1 mice, survival T/C
Assay: NCI In Vivo Anticancer Drug Screen. Data for tumor model L1210 Leukemia (intraperitoneal) in B6D2F1 (BDF1) mice
Details: endpoint: mean survival time, higher = longer survival
Procedure, shortened: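 Mice bearing the transplanted tumor received compound or vehicle. Survival of the treated group was divided by that of the vehicle-treated control group to give the ratio.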

[1] = dose: 100.0 mg/kg/injection, schedule: Q01DX001 (ip), vehicle: saline
[2] = dose: 100.0 mg/kg/injection, schedule: Q01DX009 (ip), vehicle: saline
[3] = dose: 100.0 mg/kg/injection, schedule: Q04DX003 (ip), vehicle: saline
[4] = dose: 200.0 mg/kg/injection, schedule: Q01DX001 (ip), vehicle: saline
[5] = dose: 200.0 mg/kg/injection, schedule: Q01DX009 (ip), vehicle: saline
[6] = dose: 200.0 mg/kg/injection, schedule: Q04DX003 (ip), vehicle: saline
[7] = dose: 400.0 mg/kg/injection, schedule: Q01DX001 (ip), vehicle: saline
[8] = dose: 400.0 mg/kg/injection, schedule: Q01DX009 (ip), vehicle: saline
[9] = dose: 400.0 mg/kg/injection, schedule: Q04DX003 (ip), vehicle: saline
[10] = dose: 100.0 mg/kg/injection, schedule: Q01DX009 (ip), vehicle: Klucel (hydroxypropylcellulose) (HPC)
[11] = dose: 200.0 mg/kg/injection, schedule: Q01DX009 (ip), vehicle: Klucel (hydroxypropylcellulose) (HPC)
[12] = dose: 400.0 mg/kg/injection, schedule: Q01DX009 (ip), vehicle: Klucel (hydroxypropylcellulose) (HPC)
[13] = dose: 100.0 mg/kg/injection, schedule: Q04DX002 (ip), vehicle: saline with Tween-80
[14] = dose: 200.0 mg/kg/injection, schedule: Q04DX002 (ip), vehicle: saline with Tween-80
[15] = dose: 400.0 mg/kg/injection, schedule: Q04DX002 (ip), vehicle: saline with Tween-80
[16] = dose: 100.0 mg/kg/injection, schedule: Q04DX003 (ip), vehicle: Klucel (hydroxypropylcellulose) (HPC)
[17] = dose: 200.0 mg/kg/injection, schedule: Q04DX003 (ip), vehicle: Klucel (hydroxypropylcellulose) (HPC)
[18] = dose: 50.0 mg/kg/injection, schedule: Q01DX009 (ip), vehicle: saline with Tween-80
[19] = dose: 100.0 mg/kg/injection, schedule: Q01DX009 (ip), vehicle: saline with Tween-80
[20] = dose: 100.0 mg/kg/injection, schedule: Q04DX003 (ip), vehicle: saline with Tween-80
[21] = dose: 200.0 mg/kg/injection, schedule: Q01DX009 (ip), vehicle: saline with Tween-80
[22] = dose: 200.0 mg/kg/injection, schedule: Q04DX003 (ip), vehicle: saline with Tween-80
[23] = dose: 400.0 mg/kg/injection, schedule: Q04DX003 (ip), vehicle: saline with Tween-80
[24] = dose: 100.0 mg/kg/injection, schedule: Q01DX009 (ip), vehicle: gum acacia
[25] = dose: 100.0 mg/kg/injection, schedule: Q04DX003 (ip), vehicle: gum acacia
[26] = dose: 200.0 mg/kg/injection, schedule: Q01DX009 (ip), vehicle: gum acacia
[27] = dose: 200.0 mg/kg/injection, schedule: Q04DX003 (ip), vehicle: gum acacia
[28] = dose: 400.0 mg/kg/injection, schedule: Q01DX009 (ip), vehicle: gum acacia
[29] = dose: 400.0 mg/kg/injection, schedule: Q04DX003 (ip), vehicle: gum acacia

Measured: T/C

NCc1nc(C(=O)O)cs1
inactive: [1] 110 % of control | [2] 91 % of control | [3] 116 % of control | [4] 102 % of control | [5] 87 % of control | [6] 112 % of control | [7] 112 % of control | [8] 86 % of control | [9] 96 % of control

COC[CH2][Hg][O]C(C)=O
inactive: dose: 3.12 mg/kg/injection, schedule: Q04DX002 (ip), vehicle: Klucel (hydroxypropylcellulose) (HPC) 98 % of control | dose: 6.25 mg/kg/injection, schedule: Q04DX002 (ip), vehicle: Klucel (hydroxypropylcellulose) (HPC) 92 % of control | dose: 12.5 mg/kg/injection, schedule: Q04DX002 (ip), vehicle: Klucel (hydroxypropylcellulose) (HPC) 88 % of control and 90 % of control

CCCCCCC(C)CCCC (configuration not stated)
inactive: dose: 100.0 mg/kg/injection, schedule: Q01DX001 (ip), vehicle: saline with Tween-80 94 % of control | dose: 200.0 mg/kg/injection, schedule: Q01DX001 (ip), vehicle: saline with Tween-80 91 % of control | dose: 400.0 mg/kg/injection, schedule: Q01DX001 (ip), vehicle: saline with Tween-80 86 % of control

FC1(F)SC2c3ccccc3CC2C1(F)F (configuration not stated)
inactive: [10] 97 % of control | [11] 101 % of control | [12] 95 % of control

O=c1ccc([N+](=O)[O-])c[nH]1
inactive: [2] 97 % of control and 93 % of control | [3] 105 % of control | [5] 101 % of control and 100 % of control | [6] 96 % of control and 103 % of control | [8] 105 % of control and 95 % of control | [9] 94 % of control and 96 % of control

CSc1nc(N=[N+]=[N-])n(C)n1
inactive: [13] 95 % of control | [14] 95 % of control | [15] 92 % of control

CCCc1c(N)nc(=S)[nH]c1C(=O)O
inactive: [10] 102 % of control | [3] 96 % of control | [11] 97 % of control | [6] 119 % of control | [12] 94 % of control

CC(C)(C)C1CCC(OC=O)CC1 (configuration not stated)
inactive: [16] 92 % of control | [17] 93 % of control

OC(CCl)CN1CC[N+]2(CC1)CC[N+]1(CCN(CC(O)CCl)CC1)CC2 (configuration not stated)
inactive: dose: 37.5 mg/kg/injection, schedule: Q01DX009 (ip), vehicle: water 100 % of control | dose: 59.0 mg/kg/injection, schedule: Q01DX009 (ip), vehicle: water 105 % of control | dose: 75.0 mg/kg/injection, schedule: Q01DX009 (ip), vehicle: water 101 % of control | dose: 88.0 mg/kg/injection, schedule: Q01DX009 (ip), vehicle: water 104 % of control | dose: 132.0 mg/kg/injection, schedule: Q01DX009 (ip), vehicle: water 107 % of control | dose: 150.0 mg/kg/injection, schedule: Q01DX009 (ip), vehicle: water 114 % of control | dose: 200.0 mg/kg/injection, schedule: Q01DX009 (ip), vehicle: water 102 % of control | dose: 300.0 mg/kg/injection, schedule: Q01DX009 (ip), vehicle: water 93 % of control and 95 % of control

CCN(CC)CCOc1cccc(C)c1C
inactive: dose: 25.0 mg/kg/injection, schedule: Q01DX009 (ip), vehicle: saline with Tween-80 101 % of control | [18] 101 % of control | dose: 50.0 mg/kg/injection, schedule: Q04DX003 (ip), vehicle: saline with Tween-80 98 % of control | [19] 102 % of control | [20] 90 % of control

COc1cc(/C=C(/C#N)C(N)=O)cc(OC)c1OC
inactive: [19] 93 % of control | [13] 97 % of control | [21] 93 % of control | [14] 93 % of control | dose: 400.0 mg/kg/injection, schedule: Q01DX009 (ip), vehicle: saline with Tween-80 95 % of control | [15] 97 % of control

Cc1c(Cl)cccc1NC(=O)/C=C/C(=O)O
inactive: [19] 98 % of control | [20] 95 % of control | [21] 94 % of control | [22] 93 % of control | [23] 103 % of control

COc1ccccc1CN1CCCN(Cc2ccccc2OC)C1c1cccnc1
inactive: dose: 50.0 mg/kg/injection, schedule: Q01DX001 (ip), vehicle: carboxymethylcellulose (CMC) 112 % of control | dose: 100.0 mg/kg/injection, schedule: Q01DX001 (ip), vehicle: carboxymethylcellulose (CMC) 108 % of control | dose: 200.0 mg/kg/injection, schedule: Q01DX001 (ip), vehicle: carboxymethylcellulose (CMC) 106 % of control | dose: 400.0 mg/kg/injection, schedule: Q01DX001 (ip), vehicle: carboxymethylcellulose (CMC) 108 % of control

CCOc1c(OC)c2c3c(c(-c4c(C)cc5c(C(C)C)c(OCC)c(OC)c6c5c4OC6OC)c(C)cc3c1C(C)C)OC2OC (configuration not stated)
inactive: dose: 100.0 mg/kg/injection, schedule: Q01DX001 (ip), vehicle: Klucel (hydroxypropylcellulose) (HPC) 94 % of control | dose: 200.0 mg/kg/injection, schedule: Q01DX001 (ip), vehicle: Klucel (hydroxypropylcellulose) (HPC) 93 % of control | dose: 400.0 mg/kg/injection, schedule: Q01DX001 (ip), vehicle: Klucel (hydroxypropylcellulose) (HPC) 100 % of control

COC(=O)C(Br)(Br)C(=O)OC
inactive: dose: 12.5 mg/kg/injection, schedule: Q04DX002 (ip), vehicle: saline with Tween-80 97 % of control | dose: 25.0 mg/kg/injection, schedule: Q04DX002 (ip), vehicle: saline with Tween-80 105 % of control | dose: 50.0 mg/kg/injection, schedule: Q04DX002 (ip), vehicle: saline with Tween-80 101 % of control

Cc1ccc(S(=O)(=O)NC(=O)NCc2ccco2)cc1
inactive: [16] 94 % of control | [17] 86 % of control | dose: 400.0 mg/kg/injection, schedule: Q04DX003 (ip), vehicle: Klucel (hydroxypropylcellulose) (HPC) 89 % of control

C=CCc1cc2c(C)cc(=O)oc2c(C)c1OC(C)=O
inactive: [24] 100 % of control | [25] 98 % of control | [26] 96 % of control | [27] 103 % of control | [28] 91 % of control | [29] 90 % of control

Nc1nnnn1-c1cccc(Cl)c1
inactive: [20] 96 % of control | [22] 96 % of control | [23] 94 % of control

CC(=O)CC(=O)N(C(=O)CC(C)=O)c1ccccc1C
inactive: [18] 105 % of control | [19] 105 % of control | [21] 94 % of control

C=CCOC(=O)C1c2ccccc2Cc2ccccc21
inactive: [20] 97 % of control | [22] 97 % of control | [23] 95 % of control

CC12CC(Br)C(Br)CC1(C)O2 (configuration not stated)
inactive: dose: 25.0 mg/kg/injection, schedule: Q04DX002 (ip), vehicle: gum acacia 96 % of control | dose: 50.0 mg/kg/injection, schedule: Q04DX002 (ip), vehicle: gum acacia 100 % of control | dose: 100.0 mg/kg/injection, schedule: Q04DX002 (ip), vehicle: gum acacia 104 % of control

CCOC(=O)C(C)(CCC#N)C(=O)OCC
inactive: [1] 95 % of control | dose: 100.0 mg/kg/injection, schedule: Q04DX002 (ip), vehicle: saline 101 % of control | [4] 95 % of control | dose: 200.0 mg/kg/injection, schedule: Q04DX002 (ip), vehicle: saline 105 % of control | [7] 95 % of control | dose: 400.0 mg/kg/injection, schedule: Q04DX002 (ip), vehicle: saline 105 % of control

CCCCCCCCCCCCCCCCS(=O)(=O)c1ccc(Cl)cc1
inactive: [24] 91 % of control | [25] 94 % of control | [26] 92 % of control | [27] 93 % of control | [28] 91 % of control | [29] 86 % of control

N#C/C=C/C#N
inactive: [20] 92 % of control
